Values of other authors in patent US7988998B2, “Sustained-release tramadol formulations with 24-hour efficacy” (Labopharm Inc., priority 2002, dated 2011).
Counter-ions that a name gives are not always drawn.

Details: patients receiving tramadol HCl

COc1cccc(C2(O)CCCCC2CN(C)C)c1 (stereo not shown) [tramadol HCl, Tramadol hydrochloride]
estimated incidence of seizures: less than 1%
